As a reminder, the inhibition is how much of the control response was suppressed. Low readings indicate a weak effect, high ones a strong effect.

For the assay, the target named is T1, MAO-B (Mus musculus, UniProt Q8BW75).
T1 construct: in the brains of EAE mice; from tissue; host or cells: brain homogenate of ladostigil-treated EAE mice
T1 sequence (Q8BW75 1-520): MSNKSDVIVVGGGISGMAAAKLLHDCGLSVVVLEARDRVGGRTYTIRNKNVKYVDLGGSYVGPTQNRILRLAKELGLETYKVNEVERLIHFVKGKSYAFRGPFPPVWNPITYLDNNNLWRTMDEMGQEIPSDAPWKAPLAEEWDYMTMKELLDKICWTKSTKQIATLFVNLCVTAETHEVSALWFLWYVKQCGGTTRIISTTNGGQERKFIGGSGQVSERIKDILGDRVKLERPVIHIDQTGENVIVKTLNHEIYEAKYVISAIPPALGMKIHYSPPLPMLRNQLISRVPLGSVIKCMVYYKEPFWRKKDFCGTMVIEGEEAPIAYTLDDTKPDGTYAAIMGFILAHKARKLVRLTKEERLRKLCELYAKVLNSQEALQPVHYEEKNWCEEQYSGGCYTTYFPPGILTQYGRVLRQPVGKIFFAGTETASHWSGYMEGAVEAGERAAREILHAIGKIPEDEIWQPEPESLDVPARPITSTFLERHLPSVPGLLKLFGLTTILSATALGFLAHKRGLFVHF
The experiment in a line: MAO assay (14C PEA substrate) in brains of treated EAE mice. The format is in vivo. On the procedure:
From the mice of Example 2, the level of MAO (MAO-A and MAO-B) inhibition was determined using ^14C-Labeled 2-phenylethylamine and 5-hydroxytryptamine as substrates.
The MAO enzyme obtained from a homogenate of rat brain in 0.3M sucrose, which was centrifuged at 600 g for 15 minutes. The supernatant is diluted appropriately in 0.05M phosphate buffer, and pre-incubated with serial dilutions of test compounds for 20 minutes at 37° C. ^14C-Labeled substrates (2-phenylethylamine, hereinafter PEA; 5-hydroxytryptamine, hereinafter 5-HT) are then added, and the incubation continued for a further 20 minutes (PEA), or 30-45 minutes (5-HT). Substrate concentrations used are 50 μM (PEA) and 1 mM (5-HT). In the case of PEA, enzyme concentration is chosen so that not more than 10% of the substrate is metabolized during the course of the reaction. Deaminated products are extracted into toluene-ethyl acetate (1:1 v/v) containing 0.6% (w/v) 2,5-diphenyloxazole (ppo) prior to determination by liquid scintillation counting. Radioactivity in the eluate indicates the production of neutral and acidic metabolites formed as a result of MAO activity. Activity of MAO in the sample is expressed as a percentage of control activity in the absence of inhibitors after subtraction of appropriate blank values. The activity determined using PEA as substrate is referred to as MAO-B, and that determined using 5-HT as MAO-A. Concentrations of inhibitor producing 50% inhibition of substrate metabolism (IC50) are calculated from the inhibition curves.

Turning to `C#CCN[C@@H]1CCc2ccc(OC(=O)N(C)CC)cc21` [Ladostigil, R(+)-6-(N-methyl,N-ethyl-carbamoyloxy)-N′-propargyl-1-aminoindan], where the note is “51 and 70.1 mg/kg/day, brain”, the “inhibition of MAO-B” value is listed as 81-89%. Besides, the MAO-B activity dpm reads like this: (brain of EAE mice, 10.2 mg/kg) 8784 +/− 1047 dpm; (brain of EAE mice, 25.5 mg/kg) 4258 +/− 467 dpm; (brain of EAE mice, 51 mg/kg) 2424 +/− 1122 dpm; (brain of EAE mice, 70.1 mg/kg) 1382 +/− 250 dpm. Moreover, where the note is “mouse, brain of EAE mice, 10.2 mg/kg”, the inhibition at 10.2 mg/kg is 32%. In addition, at 25.5 mg/kg the inhibition (mouse, brain of EAE mice, 25.5 mg/kg) was 67%. Under “mouse, brain of EAE mice, 51 mg/kg”, at 51 mg/kg the inhibition was 81%. Under “mouse, brain of EAE mice, 70.1 mg/kg”, this compound had an inhibition at 70.1 mg/kg of 89%.

The values above are taken from US20060276537A1, “Use of ladostigil for the treatment of multiple sclerosis” (priority 2005, published 2006).
